# Assay results taken from patent publication US20250320496A1, “MODULATION OF ABCB11 GENE TRANSCRIPTION USING ANTISENSE OLIGONUCLEOTIDES TARGETING REGULATORY RNAS” (CAMP4 Therapeutics Corporation, priority 2022, published 2025).
# Strand notation (5' to 3'): a small letter for the sugar, then the base; units joined by * are phosphorothioate-linked, units joined directly phosphodiester-linked; [ ] holds rarer units or linkages, { } end groups; capitals alone tell only the bases. e = 2'-O-(2-methoxyethyl) (MOE); l = locked nucleic acid (LNA); [5mC] = 5-methylcytosine; d = 2'-deoxy (DNA)
# Tested on: human ABCB11 mRNA
# Assay: ASO treatment of primary human hepatocytes (PHH), ABCB11 mRNA by RT-qPCR normalized to B2M
# Assay type: cell-based
# Details: for ABCB11 mRNA FC (5 μM ASO vs. UNT) / ABCB11 FC mRNA (5 μM ASO vs. untreated): primary human hepatocytes; for ABCB11 mRNA FC (5 μM ASO vs. UNT): normalized to untreated PHHs (UNT); for ABCB11 FC mRNA (5 μM ASO vs. untreated): 5 μM ASO with PO-modifications, normalized to untreated hepatocytes
# In short: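 Plated primary human hepatocytes were treated 4 h post-thaw with ASO (e.g., 1.25–10 μM; initial screen 5 μM) in medium containing 0.3 mg/ml Matrigel for 72 hrs. Total RNA was reverse-transcribed and ABCB11 mRNA measured by Taqman RT-qPCR, normalized to B2M, with fold change versus untreated PHHs.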
Substance,ABCB11 mRNA FC (5 μM ASO vs. UNT) [fold change],further results
CO-7023 (antisense e[5mC]*eT*eT*eA*eT*e[5mC]*eT*eG*eG*eA*eA*eA*eA*eT*eA*eA*eT*eG*e[5mC]*e[5mC]),1.338,
CO-11199 (antisense eT*eG*eT*eTeTeTeG*e[5mC]*eT*eT*eG*eG*eT*e[5mC]eAeAeG*eA*eG*eG),,ABCB11 FC mRNA (5 μM ASO vs. untreated): 0.97 fold change
CO-4038 (antisense e[5mC]*eT*e[5mC]*eG*eT*eA*eT*eG*eT*e[5mC]*eA*e[5mC]*eT*eG*eA*eA*e[5mC]*eT*eG*eT),1.701,
CO-7091 (eA*e[5mC]*e[5mC]*l[5mC]*e[5mC]*l[5mC]*e[5mC]*lT*e[5mC]*lA*e[5mC]*l[5mC]*eT*lT*eG*lG*eT*lT*e[5mC]*e[5mC]; antisense),1.164,
CO-6971 (antisense eA*eT*eG*eG*eG*eT*eG*eT*eG*eG*eA*eT*eG*eT*eA*eG*eA*eT*eG*eA),1.091,
CO-4519 (antisense eA*eG*eA*e[5mC]*eT*eG*eG*e[5mC]*eA*eT*eGeT*eG*eG*e[5mC]*eT*eT*e[5mC]*eA*e[5mC]),1.061,
CO-11234 (antisense eG*eT*eG*eG*lAeGe[5mC]*eA*eA*lA*e[5mC]*eT*eA*eGlGe[5mC]*eA*e[5mC]*eT*eG),,ABCB11 FC mRNA (5 μM ASO vs. untreated): 1.55 fold change
"CO-7030 (antisense AGAATCGCTGTGGCAGTTAA; fully 2'-MOE, mixed PS/PO, 5-methylcytosine; listed as RNA; modified_base 1..20: mod_base = OTHER; note = Phosphorothioate linkage; note = 2'-O-(2-methoxyethyl) ribonucleotide; modified_base 6: mod_base = OTHER; note = 5-methyl cytidine; modified_base 8: mod_base)",1.372,
CO-4485 (antisense eG*eT*e[5mC]*eA*eA*eG*eA*eT*e[5mC]*e[5mC]*e[5mC]*e[5mC]*eG*eA*eA*eG*eT*eT*eG*eA),1.194,
CO-4013 (antisense eT*eT*eG*eA*eA*eA*eG*e[5mC]*eT*eG*eG*eT*eT*eT*eA*eA*eT*eG*e[5mC]*eA),1.166,
CO-6999 (antisense eG*eT*lG*eA*lG*eG*l[5mC]*eA*lT*e[5mC]*lA*eG*lGeT*lA*eA*lG*eT*eT*e[5mC]),1.24,
CO-6977 (antisense eG*eG*eT*eA*eA*eG*eT*eT*e[5mC]*e[5mC]*eT*eG*eA*eA*eG*eT*eG*eG*eA*eG),1.15,
CO-7055 (antisense eT*e[5mC]*eA*e[5mC]*e[5mC]*e[5mC]*e[5mC]*e[5mC]*e[5mC]eT*e[5mC]*eA*e[5mC]*e[5mC]*eT*eT*eG*eG*eT*eT),1.498,
CO-3974: ASO targeting the paRNA regRNA RR63 (antisense eT*e[5mC]*eT*eG*eG*eA*eA*eA*eA*eT*eA*eA*eT*eG*e[5mC]*e[5mC]*eT*eT*eT*e[5mC]),1.2,"upregulation of ABCB11 mRNA (PHHs, Day 3, normalized to untreated PHHs): approximately 1.5 fold"
CO-7206 (eT*eT*eG*eG*e[5mC]*lG*dT*dT*lA*dT*dT*dA*dA*lT*dT*d[5mC]*lT*eA*e[5mC]*eA*eG*eA; antisense),1.164,
CO-12746 (antisense eG*eT*eG*eAeGeGe[5mC]*eA*eT*e[5mC]*eA*eG*eG*eTeAeAeG*eT*eT*e[5mC]),,ABCB11 FC mRNA (5 μM ASO vs. untreated): 1.09 fold change
CO-7042 (antisense e[5mC]*eT*eT*eG*eG*eT*e[5mC]*eA*eA*eG*eA*eG*eG*eA*eA*eA*eG*eA*eA*e[5mC]),1.132,
CO-11213 (antisense eG*eTlGeGlAeGl[5mC]*eA*lA*eA*l[5mC]*eT*lA*eGlGe[5mC]lAe[5mC]eT*eG),,ABCB11 FC mRNA (5 μM ASO vs. untreated): 1.95 fold change
CO-4024 (antisense eA*e[5mC]*eT*eT*eA*e[5mC]*eA*eG*eG*eA*eT*eG*e[5mC]*eA*eT*eT*eA*eA*eT*eG),0.997,
CO-3993 (antisense eG*e[5mC]*e[5mC]*e[5mC]*e[5mC]*eT*eT*eG*eA*eA*eT*eA*eA*eT*eT*eT*eT*eT*eG*eT),1,
CO-4520 (antisense eG*eG*eA*eA*eG*eA*eA*eG*eG*eT*eT*eA*eG*e[5mC]*eA*e[5mC]*eA*eG*eA*e[5mC]),0.945,
CO-11243 (antisense eG*eT*eGeG*lA*eGe[5mC]*eA*eAlA*e[5mC]*eTeA*eG*lGe[5mC]*eA*e[5mC]eT*eG),,ABCB11 FC mRNA (5 μM ASO vs. untreated): 1.71 fold change
CO-7112 (eT*eA*e[5mC]*eA*eT*dT*dT*eA*dG*dA*eG*dA*d[5mC]*eA*dA*dA*eG*dA*dA*eT*e[5mC]*eG*e[5mC]*eT; antisense),0.98,

Substance,ABCB11 mRNA FC (5 μM ASO vs. UNT) [fold change],further results
CO-7189: derivative ASO with additional chemical modifications based on parent ASO CO-4535 (antisense eT*eG*lG*e[5mC]*lG*eT*lT*eA*lT*eT*lA*eA*lT*eT*l[5mC]*eT*lA*e[5mC]*eA*eG),1.487,
CO-4490 (antisense e[5mC]*eG*eA*eG*eA*eA*eA*eA*eT*eG*eA*eG*eG*eT*eA*e[5mC]*eA*eT*eG*eG),1.158,
CO-7013 (antisense eA*eG*eT*eG*eA*eG*dG*d[5mC]*dA*dT*d[5mC]*dA*dG*dG*dT*dA*eA*eG*eT*eT*e[5mC]*e[5mC]),0.997,
CO-11206 (antisense eT*eGeT*eT*eTeT*eG*e[5mC]eT*eT*eGeG*eT*e[5mC]eA*eA*eGeA*eG*eG),,ABCB11 FC mRNA (5 μM ASO vs. untreated): 1.02 fold change
CO-4488 (antisense eA*eA*e[5mC]*eA*eT*eG*eT*e[5mC]*eA*eG*eA*e[5mC]*eA*eG*eT*eA*eG*eT*eT*e[5mC]),1.084,
CO-11227 (antisense eG*eT*lG*eGeA*lG*e[5mC]*eAlA*eA*e[5mC]*lTeA*eG*lG*e[5mC]eA*l[5mC]*eT*eG),,ABCB11 FC mRNA (5 μM ASO vs. untreated): 2.11 fold change
CO-6969 (antisense eT*eG*eT*eG*eG*eA*eT*eG*eT*eA*eG*eA*eT*eG*eA*eA*eT*eG*eG*e[5mC]),1.266,
CO-11238 (antisense eG*eT*eGeG*lA*eG*e[5mC]*eAeA*lA*e[5mC]*eT*eAeG*lG*e[5mC]*eA*e[5mC]eT*eG),,ABCB11 FC mRNA (5 μM ASO vs. untreated): 1.26 fold change
CO-4020 (antisense e[5mC]*eA*eT*eG*eT*eA*eT*e[5mC]*eA*eA*eT*e[5mC]*eT*e[5mC]*eT*eT*eA*eG*eA*eG),1.201,
CO-4484 (antisense eG*e[5mC]*eT*eA*eA*eT*e[5mC]*e[5mC]*eA*eA*e[5mC]*e[5mC]*eA*e[5mC]*eT*eT*e[5mC]*eA*eA*e[5mC]),1.113,
CO-6675 (antisense eA*eG*e[5mC]*eA*eA*eG*e[5mC]*eT*eG*eT*eG*eT*eG*eG*eA*eA*eG*eG*eA*e[5mC]),1.346,
CO-4482 (antisense eT*eA*eA*e[5mC]*eT*eG*eG*eG*eA*eG*eT*eA*eT*eA*eG*eA*eG*eG*eA*e[5mC]),1.001,
"CO-7113 (TACATTTAGAGACAAAGAATCGCT; MOE/LNA gapmer, PS/PO backbone, 5-methylcytosine; listed as DNA; modified_base 1..24: mod_base = OTHER; note = Phosphorothioate linkage; modified_base 1..5: mod_base = OTHER; note = 2'-O-(2-methoxyethyl) ribonucleotide; misc_feature 1..5: note = RNA; misc_feature 6..7: note = DNA; misc_feature 8: note = RNA)",1.179,
CO-12755 (antisense eG*eT*eGeA*eGeG*e[5mC]eA*eTe[5mC]*eAeG*eGeT*eAeA*eGeT*eT*e[5mC]),,ABCB11 FC mRNA (5 μM ASO vs. untreated): 0.99 fold change
CO-4023 (antisense e[5mC]*eA*e[5mC]*eA*eA*e[5mC]*eA*eT*eT*eG*eT*eA*eT*eA*e[5mC]*eA*eA*eT*eA*e[5mC]),1.092,
CO-7207 (eT*eT*eT*eG*eG*e[5mC]*eG*dT*dT*dA*dT*dT*dA*dA*dT*dT*d[5mC]*eT*eA*e[5mC]*eA*eG*eA*eG; antisense),1.221,
CO-3988 (antisense eA*eA*eA*eT*eG*e[5mC]*e[5mC]*e[5mC]*eA*eA*eG*eT*eT*eT*e[5mC]*eA*eT*eT*eG*e[5mC]),1.827,
CO-4022 (antisense eG*eA*eT*eG*eA*e[5mC]*eT*e[5mC]*eT*eT*eG*eG*eT*eT*eG*e[5mC]*eT*eG*eT*e[5mC]),1.168,
CO-7200 (eA*eG*eG*eT*eG*eG*eA*eG*e[5mC]*eA*eA*eA*e[5mC]*eT*eA*eG*eG*e[5mC]*eA*e[5mC]*eT*eG*eA*eG; antisense),1.277,
CO-7025 (antisense eA*eG*eT*eG*eA*eG*e[5mC]*eT*eT*eA*eT*e[5mC]*eT*eG*eG*eA*eA*eA*eA*eT),1.259,
CO-7210 (eT*eT*eT*eG*eG*d[5mC]*dG*lT*dT*dA*lT*dT*dA*lA*dT*dT*l[5mC]*dT*dA*e[5mC]*eA*eG*eA*eG; antisense),1.362,
CO-7103 (eT*eA*eT*e[5mC]*eT*eG*eG*eA*eA*eA*eA*eT*eA*eA*eT*eG*e[5mC]*e[5mC]*eT*eT*eT*e[5mC]*eT*eA; antisense),1.006,
CO-7004 (antisense eG*eT*eG*eA*lG*eG*e[5mC]*eA*eT*l[5mC]*eA*eG*eG*eT*lA*eA*eG*eT*eT*e[5mC]),1.285,
